Measured values: PubChem BioAssay (NCI)
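Tested at 5 concentrations; 48 h exposure; 96-well plates; endpoints linearly interpolated, else capped at highest concentration. Here, GI50 denotes the concentration required for 50% inhibition of growth. The concentration for full growth arrest is given as TGI.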

Legend:
Experiment in all cases: inhibition of tumour cell growth, NCI panel, 48 h
[1] = test system: UACC-257 melanoma
[2] = test system: MDA-MB-231 breast
[3] = test system: HCC-2998 colon
[4] = test system: HT29 colon
[5] = test system: HCT-116 colon
[6] = test system: SF-295 CNS
[7] = test system: COLO 205 colon
[8] = test system: HOP-62 NSCLC
[9] = test system: TK-10 renal
[10] = test system: HL-60(TB) leukemia
[11] = test system: SF-268 CNS
[12] = test system: RXF 393 renal
[13] = test system: SNB-19 CNS
[14] = test system: SK-MEL-5 melanoma
[15] = test system: MDA-MB-435
[16] = test system: OVCAR-3 ovarian
[17] = test system: NCI-H23 lung
[18] = test system: MDA-MB-468 breast
[19] = test system: CCRF-CEM leukemia
[20] = test system: MOLT-4 leukemia
[21] = test system: SK-MEL-28 melanoma
[22] = test system: A549 NSCLC
[23] = test system: OVCAR-8 ovarian
[24] = test system: OVCAR-4 ovarian
[25] = test system: PC-3 prostate
[26] = test system: DU-145 prostate
[27] = test system: HS 578T breast
[28] = test system: MCF7 breast
[29] = test system: SN12C renal
[30] = test system: NCI-H460 lung
[31] = test system: SF-539 CNS
[32] = test system: UO-31 renal
[33] = test system: NCI-H522 lung
[34] = test system: NCI-H226 lung
[35] = test system: SW-620 colon
[36] = test system: 786-0 renal
[37] = test system: HOP-92 NSCLC
[38] = test system: SK-OV-3 ovarian
[39] = test system: U251 CNS
[40] = test system: SK-MEL-2 melanoma
[41] = test system: K-562 leukemia
[42] = test system: HCT-15 colon
[43] = test system: CAKI-1 renal
[44] = test system: EKVX NSCLC
[45] = test system: ACHN renal
[46] = test system: M14 melanoma
[47] = test system: SR leukemia
[48] = test system: T-47D breast
[49] = test system: BT-549 breast
[50] = test system: IGROV1 ovarian
[51] = test system: A498 renal
[52] = test system: MALME-3M melanoma
[53] = test system: UACC-62 melanoma
[54] = test system: KM12 colon
[55] = test system: LOX IMVI melanoma
[56] = test system: OVCAR-5 ovarian

Compound: CN(C)c1nc(NCCNS(=O)(=O)c2ccc(C(=O)/C=C/c3ccc(Cl)cc3)cc2)nc(N2CCOCC2)n1
- GI50 [1]: 16.2 µM
- TGI [1]: 30 µM
- GI50 [2]: 13.3 µM
- TGI [2]: 26.5 µM
- GI50 [3]: 16.7 µM
- TGI [3]: 30.8 µM
- GI50 [4]: 3.21 µM
- TGI [4]: 10.4 µM
- GI50 [5]: 11.7 µM
- TGI [5]: 24.3 µM
- GI50 [6]: 13.3 µM
- TGI [6]: 26.4 µM
- GI50 [7]: 16.7 µM
- TGI [7]: 34.3 µM
- GI50 [8]: 17.5 µM
- TGI [8]: 34 µM
- GI50 [9]: 15.8 µM
- TGI [9]: 29.4 µM
- GI50 [10]: 14.7 µM
- TGI [10]: 95.1 µM
- GI50 [11]: 17.7 µM
- TGI [11]: 43.8 µM
- GI50 [12]: 12.8 µM
- TGI [12]: 27 µM
- GI50 [13]: 14.2 µM
- TGI [13]: 27.2 µM
- GI50 [14]: 16.3 µM
- TGI [14]: 30.1 µM
- GI50 [15]: 12.8 µM
- TGI [15]: 26.6 µM
- GI50 [16]: 17.9 µM
- TGI [16]: 35.5 µM
- GI50 [17]: 15.7 µM
- TGI [17]: 29.5 µM
- GI50 [18]: 11 µM
- TGI [18]: 24.9 µM
- GI50 [19]: 6.86 µM
- TGI [19]: > 100 µM
- GI50 [20]: 3.38 µM
- TGI [20]: 80.3 µM
- GI50 [21]: 15.5 µM
- TGI [21]: 28.9 µM
- GI50 [22]: 14.4 µM
- TGI [22]: 28.5 µM
- GI50 [23]: 14.8 µM
- TGI [23]: 28.4 µM
- GI50 [24]: 14.7 µM
- TGI [24]: 29 µM
- GI50 [25]: 13 µM
- TGI [25]: 29.6 µM
- GI50 [26]: 17.2 µM
- TGI [26]: 34 µM
- GI50 [27]: 15.8 µM
- TGI [27]: 60.5 µM
- GI50 [28]: 2370 nM
- TGI [28]: 6.39 µM
- GI50 [29]: 14.4 µM
- TGI [29]: 27.8 µM
- GI50 [30]: 16.8 µM
- TGI [30]: 33.6 µM
- GI50 [31]: 14.7 µM
- TGI [31]: 27.9 µM
- GI50 [32]: 11.4 µM
- TGI [32]: 23.5 µM
- GI50 [33]: 14 µM
- TGI [33]: 27.3 µM
- GI50 [34]: 15.7 µM
- TGI [34]: 34 µM
- GI50 [35]: 8.46 µM
- TGI [35]: 21.7 µM
- GI50 [36]: 14.8 µM
- TGI [36]: 28.8 µM
- GI50 [37]: 15.1 µM
- TGI [37]: 32 µM
- GI50 [38]: 15.3 µM
- TGI [38]: 30.2 µM
- GI50 [39]: 8.17 µM
- TGI [39]: 20.7 µM
- GI50 [40]: 16.6 µM
- TGI [40]: 30.4 µM
- GI50 [41]: 3.71 µM
- TGI [41]: > 100 µM
- GI50 [42]: 2070 nM
- TGI [42]: 4.54 µM
- GI50 [43]: 11.2 µM
- TGI [43]: 24.7 µM
- GI50 [44]: 14.8 µM
- TGI [44]: 28.7 µM
- GI50 [45]: 13.5 µM
- TGI [45]: 26.3 µM
- GI50 [46]: 14.1 µM
- TGI [46]: 28.3 µM
- GI50 [47]: 2520 nM
- TGI [47]: > 100 µM
- GI50 [48]: 16.7 µM
- TGI [48]: 42.2 µM
- GI50 [49]: 15.3 µM
- TGI [49]: 29.3 µM
- GI50 [50]: 3.08 µM
- TGI [50]: 11 µM
- GI50 [51]: 12.4 µM
- TGI [51]: 25.1 µM
- GI50 [52]: 15.1 µM
- TGI [52]: 28.6 µM
- GI50 [53]: 11.4 µM
- TGI [53]: 23.7 µM
- GI50 [54]: 16.9 µM
- TGI [54]: 41.4 µM
- GI50 [55]: 1710 nM
- TGI [55]: 3.24 µM
- GI50 [56]: 15 µM
- TGI [56]: 28.4 µM
